Test results published in publication PMC4431182 (2015).

Assays:
Test in all cases: electrochemical aptamer-based sensor, square wave voltammetry
[1] = tested on: 7UC (RNA, aptamer) CUUGGUCUAGGUAAUGAG; conditions: Na+ 100 mM, Mg2+ 5 mM; 20 mM Tris, pH 7.4; surface-immobilised aptamer; no quantitative binding, 3% signal change at 30 µM tobramycin
[2] = tested on: High-Gain Parent (RNA, aptamer) CUUGGUUUAGGUAAUGAG; conditions: Na+ 100 mM, Mg2+ 5 mM; 20 mM Tris, pH 7.4; surface-immobilised aptamer; apparent
[3] = tested on: 16GU (RNA, aptamer) CUUGGUUUAGGUAAUUAG; conditions: Na+ 100 mM, Mg2+ 5 mM; 20 mM Tris, pH 7.4; surface-immobilised aptamer; apparent
[4] = tested on: 7UG (RNA, aptamer) CUUGGUGUAGGUAAUGAG; conditions: Na+ 100 mM, Mg2+ 5 mM; 20 mM Tris, pH 7.4; surface-immobilised aptamer; no quantitative binding, -9% signal change at 30 µM tobramycin
[5] = tested on: 3-UAC (RNA, aptamer) CUUGGUUUAGGUAAUGAGUAC; conditions: Na+ 100 mM, Mg2+ 5 mM; 20 mM Tris, pH 7.4; surface-immobilised aptamer; apparent

## NC[C@H]1O[C@H](O[C@H]2[C@H](O)[C@@H](O[C@H]3O[C@H](CO)[C@@H](O)[C@H](N)[C@H]3O)[C@H](N)C[C@@H]2N)[C@H](N)C[C@@H]1O
[1]
  binding: no
[2]
  KD: 80 ± 10 nM
[3]
  Kd: 3000 ± 400 nM
[4]
  binding: no
[5]
  Kd: 170 ± 30 nM
